What all share (format): functional
The nature of assay [1]: Effect on cannabinoid tetrad (nociception, temperature, spontaneous motility and catalepsy) of behavioral test; inhibit spontaneous motility.
Assay [2] is described as follows: Effect on cannabinoid tetrad (nociception, temperature, spontaneous motility and catalepsy) of behavioral test; induce antinociception.
A short description of assay [3]: Effect on cannabinoid tetrad (nociception, temperature, spontaneous motility and catalepsy) of behavioral test; induce hypothermia.
The nature of assay [4]: Effect on cannabinoid tetrad (nociception, temperature, spontaneous motility and catalepsy) of behavioral test; induce catalepsy.
For another assay, the species on record is Cavia porcellus. As to the kind of experiment: Effect on electrically evoked contractions in […] plexus longitudinal muscles of guinea pig at 10E-8 to 2.4E-6 M; No effect. The following applies: Muscle tissue.
The species entered for the next assay is Mus musculus. As to the kind of experiment: Effect on electrically evoked contractions in mouse vas deferens at 10E-8 to 10E-6 M concentration; No effect.
Assay [5] can be described thus: Effect on cannabinoid tetrad (nociception, temperature, spontaneous motility and catalepsy) of behavioral test; no significant effect.

Activity calls are given as the source filed them. No cut-off for these calls is given here.

With `Cc1c(C(=O)c2cccc3ccccc23)c2cccc3c2n1[C@H](CN1CCOCC1)CO3`, the result in assay [1], in assay [2], in assay [3] and in assay [4] was Active.

On to `CCCCCCCc1nc(-c2ccccc2)n(-c2ccccc2)n1`, for which the outcome in the assay filed under Cavia porcellus and in the assay listed under Mus musculus was inactive.

As for `CCc1nc(-c2ccc(Cl)cc2)n(-c2ccccc2)n1`, the result in the assay filed under Cavia porcellus and in the assay filed under Mus musculus was inactive.

As for `CCCCCCc1nc(-c2ccc(Cl)cc2Cl)n(-c2ccc(Cl)cc2Cl)n1`, the result in the assay filed under Cavia porcellus and in the assay listed under Mus musculus was inactive.

As to `CCCCCCc1nc(-c2ccc(Cl)cc2)n(-c2ccc(Cl)cc2)n1`, the outcome in the assay listed under Cavia porcellus and in the assay listed under Mus musculus was inactive.

For the molecule `CCCCCCc1nc(-c2ccc(Cl)cc2)n(-c2ccc(Cl)cc2Cl)n1`, the result (in the assay listed under Cavia porcellus; in assay [5]; in the assay filed under Mus musculus) was inactive.

Regarding `CCc1nc(-c2ccc(Cl)cc2)n(-c2ccc(Cl)cc2)n1`, the result in the assay filed under Cavia porcellus and in the assay listed under Mus musculus was inactive.

The values are drawn from ChEMBL document CHEMBL1148316, “Discovery of 5-(4-chlorophenyl)-1-(2,4-dichlorophenyl)-3-hexyl-1h-1,2,4-triazole, a novel in vivo cannabinoid antagonist containing a 1,2,4-triazole motif” (J Med Chem, 2004).
